Values quoted from earlier work, collected in paper PMC9230797, “Integration of a Physiologically Based Pharmacokinetic and Pharmacodynamic Model for Tegoprazan and Its Metabolite: Application for Predicting Food Effect and Intragastric pH Alterations” (Pharmaceutics, 2022).
Like-named read-outs stand apart in the source and are kept apart here.

Experiments:
[1] = parameters: method as in PMID 28378544; settings: cited from earlier work
[2] = cited from earlier work
[3] = parameters: method as in PMID 19006606; settings: cited from earlier work

COc1ccc2[nH]c([S+]([O-])Cc3ncc(C)c(OC)c3C)nc2c1 (stereo not drawn) [omeprazole]
mean AUC0–12 h ([1]; CYP2C19 EM, multiple administrations): 1715 ng·h/mL | mean AUC0–12 h ([1]; CYP2C19 EM, single administration): 713.5 ng·h/mL | mean AUC0–12 h ([1]; CYP2C19 IM, multiple administrations): 2087 ng·h/mL | mean AUC0–12 h ([1]; CYP2C19 IM, single administration): 972.5 ng·h/mL | mean AUC0–12 h ([1]; CYP2C19 PM, multiple administrations): 3669 ng·h/mL | mean AUC0–12 h ([1]; CYP2C19 PM, single administration): 3652 ng·h/mL | AUC0–12 h ratio PM vs EM ([1]; multiple administrations): 2.14 fold | AUC0–12 h ratio PM vs IM ([1]; multiple administrations): 1.76 fold | AUC0–12 h ratio PM vs EM ([1]; single administration): 5.12 fold | AUC0–12 h ratio PM vs IM ([1]; single administration): 3.76 fold | PK parameters (Tmax, AUC, half-life, Cmax) after a high-fat meal [2]: tended to fluctuate significantly

COc1ccnc(C[S+]([O-])c2nc3ccc(OC(F)F)cc3[nH]2)c1OC (stereo not drawn) [pantoprazole]
PK parameters (Tmax, AUC, half-life, Cmax) after a high-fat meal [2]: tended to fluctuate significantly

COCCCOc1ccnc(C[S+]([O-])c2nc3ccccc3[nH]2)c1C (stereo not drawn) [rabeprazole]
PK parameters (Tmax, AUC, half-life, Cmax) after a high-fat meal [2]: tended to fluctuate significantly

COc1ccc2[nH]c([S+]([O-])Cc3ncc(C)c(OC)c3C)nc2n1 (stereo not drawn) [tenatoprazole]
plasma half-life [3]: up to 9 h

CNCc1cc(-c2ccccc2F)n(S(=O)(=O)c2cccnc2)c1 [vonoprazan]
effect of food intake on PK parameters [2]: not significantly affected
